Test results published in patent US20230256102A1, “COMPOSITES AND USES THEREOF” (YISSUM RESEARCH DEVELOPMENT COMPANY OF THE HEBREW …, priority 2019, published 2023).

Experiments:
A. citrulli M6 [1] = test: Bactericidal (killing) activity of LAE@Cu composites in vitro; format: cell-based, Acidovorax citrulli; details: LAE at 1.25 ppm, 30 min
Method: Assessment of bactericidal activity of LAE @Cu composites in vitro: Bactericidal activity of LAE@Cu composites was tested by adding the composites to 50 ml-PBS suspensions containing ˜10^7 colony forming units (CFU)/ml of A. citrulli M6. The suspensions were incubated at 30° C. with shaking for 30 min. Then, the concentrations of viable bacteria were determined following plating of serial dilutions on nutrient agar (NA, Difco) plates.
Bacterial killing assay: The bactericidal (killing) activity of LAE@[Cu] composites at a concentration of 25 ppm (1.25 mg in 50 ml), were tested in PBS containing ˜107 (CFU)/mL. The suspensions were incubated at 30° C. with shaking for 30 min. Then, the viable bacteria were determined following plating of serial dilutions on NA (nutrient agar) plates. Controls included @[Cu], the composite-like compound without LAE, and the commercial bactericide, Kocide®, at the same concentrations.

A. citrulli M6 [2] = test: In planta assay, A. citrulli-melon pathosystem; format: in vivo, melon (cv. AN-305); details: 200 ppm @[Cu], 10 ppm LAE; 5 days after inoculation
Source text: Assessment of the ability of the LAE @Cu composites to reduce disease: To assess the potential of LAE@Cu composites for management of bacterial plant diseases, we carried out experiments using the A. citrulli-melon pathosystem. In these experiments, the foliage of three-week-old plants of melon (cv. AN-305; Origene Seeds) were sprayed with LAE1.0@Cu composites at a concentration of 200 ppm. Additional treatments included spraying with 200 ppm of @Cu, 10 ppm of LAE (corresponding to the concentration of LAE in 200 ppm LAE×1.0@Cu) and the commercial bactericide Kocide, which was applied at the recommended concentration for management of the disease (2 mg/ml). As controls, foliage were sprayed with double distilled water (DDW). […] Disease severity of inoculated leaves was determined 5 days after inoculation, using the following scale: 0, no symptoms; 1, few minor lesions; 2, few small necrotic spots; 3, increased necrotic spots in less than 25% of the leaf area; 4, increased necrotic spots in 25 to 50% of the leaf area; and 5, increased necrotic spots in more than 50% of the leaf area and dead leaf. The data were statistically analyzed by one-way analysis of variance (ANOVA) and Tukey's honest significant difference (HSD) test.
In-planta assay: Melon plants (cv. AN-305; Origene Seeds) were grown in a growth chamber at 28° C. […] Disease severity was determined 5 days after inoculation.

CCCCCCCCCCCC(=O)N[C@@H](CCCN=C(N)N)C(=O)OCC [LAE, Lauroyl arginate ethyl ester]
reduction of the A. citrulli population (A. citrulli M6 [1]): 2 orders of magnitude
reduction of disease severity as compared with non-treated controls (A. citrulli M6 [2]): 29%
